Starred links: 1 amine or outer side, 2 acyl side, 3 side chain; linkers in the order of their positions; H or OH if unused. Non-standard residues stand in square brackets, D forms with d. Residues, ends and D or L forms follow the SMILES beside them. Groups on a side chain read outwards from the residue. *: point of attachment. C20 diacid = O=C(O)CCCCCCCCCCCCCCCCCCC(=O)*; C18 diacid = O=C(O)CCCCCCCCCCCCCCCCC(=O)*; C16 diacid = O=C(O)CCCCCCCCCCCCCCC(=O)*; γGlu = O=C(O)[C@H](CCC(=O)[*:2])N[*:1]; Palmitoyl = CCCCCCCCCCCCCCCC(=O)*; AEEA = NCCOCCOCC(=O)O; Aib = CC(C)(N)C(=O)O

One test deals with T1, CRF1R receptor (Homo sapiens, UniProt P34998).
T1 construct: host or cells: CHO-K1 clone 2
T1 sequence (P34998 24-415): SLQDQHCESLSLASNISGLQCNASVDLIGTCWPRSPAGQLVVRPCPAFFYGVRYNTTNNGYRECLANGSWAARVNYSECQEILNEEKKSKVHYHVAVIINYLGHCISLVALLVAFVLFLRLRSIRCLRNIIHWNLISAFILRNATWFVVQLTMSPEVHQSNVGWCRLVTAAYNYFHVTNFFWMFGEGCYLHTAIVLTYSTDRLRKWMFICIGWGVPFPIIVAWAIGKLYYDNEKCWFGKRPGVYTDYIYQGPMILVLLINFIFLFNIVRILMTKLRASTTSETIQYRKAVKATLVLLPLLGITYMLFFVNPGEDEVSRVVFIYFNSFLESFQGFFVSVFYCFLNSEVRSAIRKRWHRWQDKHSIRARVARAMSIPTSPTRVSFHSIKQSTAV
In words: cAMP activity at anti-target CRF1R, CHO-K1 cell line clone 2 (Example 19.10). The class given is cell-based. The settings on record: CRF1R CHO-K1 clone 2; for Emax: 100% = Sauvagine at 100 nM. As for the experimental part:
The CRF1R-overexpression CHO-K1 cell line clone 2 was purchased from PerkinElmer.
Cells were grown in a 10 cm dish at 37° C./5% CO2 in medium (F12 (Hams)/10% FBS/400 μg/ml G418) to near confluence. At that stage, cells were harvested, resuspended to 10 million/mL in culture medium without G418 and with 10% DMSO. 1 mL vial aliquots were slowly frozen to -80° C. in isopropanol and then transferred in liquid nitrogen for storage. These vials were used to run the experiment following the procedure reported 10 in the previous paragraph, except for the compound used in the control well to define the 100% activation (Sauvagine at 100 nM)

The target of the next test is T2, human CRF2α receptor (Homo sapiens, UniProt Q13324).
T2 construct: expressed in transfected cells; host or cells: TeloHEAC
T2 sequence (Q13324 1-411): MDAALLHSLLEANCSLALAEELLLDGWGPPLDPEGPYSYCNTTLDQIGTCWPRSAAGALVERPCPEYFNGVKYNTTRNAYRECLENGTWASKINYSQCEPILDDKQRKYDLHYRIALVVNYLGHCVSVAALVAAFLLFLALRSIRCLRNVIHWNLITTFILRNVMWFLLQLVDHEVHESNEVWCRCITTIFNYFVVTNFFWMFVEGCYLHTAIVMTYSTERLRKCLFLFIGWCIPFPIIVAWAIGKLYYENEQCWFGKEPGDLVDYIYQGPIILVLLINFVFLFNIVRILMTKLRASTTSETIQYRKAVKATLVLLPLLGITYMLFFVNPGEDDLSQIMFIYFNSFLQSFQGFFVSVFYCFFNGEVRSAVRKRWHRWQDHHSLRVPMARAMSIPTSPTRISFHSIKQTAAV
In words: cAMP agonism at human CRF2 α receptor in TeloHEAC cells (Example 7). The class given is cell-based. The conditions noted are these: cAMP HTRF, TeloHEAC cells stably expressing human CRF2 α, 0% HSA; read-out: EC50 [nM], 0% HSA. In a few lines: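 Thawed frozen stably transfected cells in HBSS/20 mM HEPES (0% or 0.1% HSA) plus 2 mM IBMX were exposed to compound at 2000 cells/well for 30 min at room temperature. Intracellular cAMP was read by HTRF (665/620 nm ratio) after 1 h lysis; EC50 was derived with 1000 nM urocortin 2 set as 100%.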

On to `CC[C@H](C)[C@H](N)C(=O)N[C@H](C(=O)N[C@@H](CC(C)C)C(=O)N[C@@H](CO)C(=O)N[C@@H](CC(C)C)C(=O)N[C@@H](CC(=O)O)C(=O)N[C@@H](C(=O)N1CCC[C@H]1C(=O)N[C@H](C(=O)N[C@@H](CCCCN)C(=O)N[C@@H](CC(C)C)C(=O)N[C@@H](CCCCNC(=O)CC[C@H](NC(=O)CCCCCCCCCCCCCCC(=O)O)C(=O)O)C(=O)N[C@@H](CCC(N)=O)C(=O)N[C@@H](CCCCN)C(=O)N[C@@H](CC(C)C)C(=O)N[C@@H](CC(C)C)C(=O)N[C@@H](CCCCN)C(=O)N[C@@H](CCC(N)=O)C(=O)N[C@@H](CCC(=O)O)C(=O)N[C@@H](CCCNC(=N)N)C(=O)N[C@@H](CCC(N)=O)C(=O)N[C@@H](CCCNC(=N)N)C(=O)N[C@@H](CCCCN)C(=O)N[C@@H](CCC(=O)O)C(=O)N[C@@H](CCCNC(=N)N)C(=O)N[C@@H](CCC(=O)O)C(=O)N[C@@H](CCC(N)=O)C(=O)N[C@@H](C)C(=O)N[C@@H](CCC(=O)O)C(=O)N[C@@H](CCCCN)C(=O)N[C@@H](CC(N)=O)C(=O)N[C@H](C(=O)N[C@@H](CCCNC(=N)N)C(=O)N[C@H](C(=O)N[C@@H](CC(C)C)C(=O)N[C@@H](CCC(=O)O)C(=O)N[C@@H](CCCNC(=N)N)C(=O)N[C@H](C(N)=O)C(C)C)[C@@H](C)CC)C(C)C)[C@@H](C)O)C(C)C)C(C)C` [SEQ ID NO: 222] (H-IVLSLD[dV]PTKLK([γGlu-C16 diacid])QKLLKQERQRKEREQAEKNVRILERV-NH2; N-terminus assumed), for which, on CRF1R receptor, the Emax was 6.2%.

At CRF1R receptor, `CCCCCCCCCCCCCCCC(=O)N[C@@H](CCC(=O)NCCCC[C@H](NC(=O)[C@H](CC(C)C)NC(=O)[C@H](CCCCN)NC(=O)[C@@H](NC(=O)[C@@H]1CCCN1C(=O)[C@H](NC(=O)[C@H](CC(=O)O)NC(=O)[C@H](CC(C)C)NC(=O)[C@H](CO)NC(=O)[C@H](CC(C)C)NC(=O)[C@@H](NC(=O)[C@@H](N)[C@@H](C)CC)C(C)C)C(C)C)[C@@H](C)O)C(=O)N[C@@H](CCC(N)=O)C(=O)N[C@@H](CCCCN)C(=O)N[C@@H](CC(C)C)C(=O)N[C@@H](CC(C)C)C(=O)N[C@@H](CCCCN)C(=O)N[C@@H](CCC(N)=O)C(=O)N[C@@H](CCC(=O)O)C(=O)N[C@@H](CCCNC(=N)N)C(=O)N[C@@H](CCC(N)=O)C(=O)N[C@@H](CCCNC(=N)N)C(=O)N[C@@H](CCCCN)C(=O)N[C@@H](CCC(=O)O)C(=O)N[C@@H](CCCNC(=N)N)C(=O)N[C@@H](CCC(=O)O)C(=O)N[C@@H](CCC(N)=O)C(=O)N[C@@H](C)C(=O)N[C@@H](CCC(=O)O)C(=O)N[C@@H](CCCCN)C(=O)N[C@@H](CC(N)=O)C(=O)N[C@@H](CCCCN)C(=O)N[C@@H](CCCNC(=N)N)C(=O)N[C@H](C(=O)N[C@@H](CC(C)C)C(=O)N[C@@H](CCC(=O)O)C(=O)N[C@@H](CCCNC(=N)N)C(=O)N[C@H](C(N)=O)C(C)C)[C@@H](C)CC)C(=O)O` [SEQ ID NO: 223] (H-IVLSLD[dV]PTKLK([γGlu-Palmitoyl])QKLLKQERQRKEREQAEKNKRILERV-NH2; N-terminus assumed) yielded a maximum response (Emax) of 57.3%.

The compound `CC[C@H](C)[C@H](N)C(=O)N[C@H](C(=O)N[C@@H](CC(C)C)C(=O)N[C@@H](CO)C(=O)N[C@@H](CC(C)C)C(=O)N[C@@H](CC(=O)O)C(=O)N[C@@H](C(=O)N1CCC[C@H]1C(=O)N[C@H](C(=O)N[C@@H](CCCCN)C(=O)N[C@@H](CC(C)C)C(=O)N[C@@H](CCCCNC(=O)COCCOCCNC(=O)COCCOCCNC(=O)CC[C@H](NC(=O)CCCCCCCCCCCCCCCCCCC(=O)O)C(=O)O)C(=O)N[C@@H](CCCCN)C(=O)N[C@@H](CCCCN)C(=O)N[C@@H](CC(C)C)C(=O)N[C@@H](CC(C)C)C(=O)N[C@@H](CCCCN)C(=O)N[C@@H](CCC(N)=O)C(=O)N[C@@H](CCC(=O)O)C(=O)N[C@@H](CCCNC(=N)N)C(=O)N[C@@H](CCCCN)C(=O)N[C@@H](CCCNC(=N)N)C(=O)NC(C)(C)C(=O)N[C@@H](CCC(=O)O)C(=O)N[C@@H](CCCNC(=N)N)C(=O)N[C@@H](CCC(=O)O)C(=O)N[C@@H](CCCCN)C(=O)N[C@@H](C)C(=O)N[C@@H](CCC(=O)O)C(=O)N[C@@H](CCCCN)C(=O)N[C@@H](C)C(=O)N[C@@H](C)C(=O)N[C@@H](CCCNC(=N)N)C(=O)N[C@H](C(=O)N[C@@H](CC(C)C)C(=O)N[C@@H](CCC(=O)O)C(=O)N[C@@H](CCCNC(=N)N)C(=O)N[C@H](C(N)=O)C(C)C)[C@@H](C)CC)[C@@H](C)O)C(C)C)C(C)C` [SEQ ID NO: 224, IVLSLDvPTKLK*KKLLKQERKRAibEREKAEKAARILERV-NH2] (H-IVLSLD[dV]PTKLK([AEEA-AEEA-γGlu-C20 diacid])KKLLKQERKR[Aib]EREKAEKAARILERV-NH2; N-terminus assumed) displayed a maximal effect (Emax) at CRF1R receptor of 52.6%.

Regarding `CC[C@H](C)[C@H](N)C(=O)N[C@H](C(=O)N[C@@H](CC(C)C)C(=O)N[C@@H](CO)C(=O)N[C@@H](CC(C)C)C(=O)N[C@@H](CC(=O)O)C(=O)N[C@H](C(=O)N1CCC[C@H]1C(=O)N[C@H](C(=O)NCC(=O)N[C@@H](CC(C)C)C(=O)N[C@@H](CCCCNC(=O)COCCOCCNC(=O)COCCOCCNC(=O)CC[C@H](NC(=O)CCCCCCCCCCCCCCCCC(=O)O)C(=O)O)C(=O)N[C@@H](CCC(N)=O)C(=O)N[C@@H](CCCCN)C(=O)N[C@@H](CC(C)C)C(=O)N[C@@H](CC(C)C)C(=O)N[C@@H](CCCCN)C(=O)N[C@@H](CCC(N)=O)C(=O)N[C@@H](CCC(N)=O)C(=O)N[C@@H](CCCNC(=N)N)C(=O)N[C@@H](CCC(N)=O)C(=O)N[C@@H](CCCNC(=N)N)C(=O)N[C@@H](CCCCN)C(=O)N[C@@H](CCC(=O)O)C(=O)N[C@@H](CCCNC(=N)N)C(=O)N[C@@H](CCC(N)=O)C(=O)N[C@@H](CCC(N)=O)C(=O)N[C@@H](C)C(=O)N[C@@H](CCC(=O)O)C(=O)N[C@@H](CCCCN)C(=O)N[C@@H](CC(N)=O)C(=O)N[C@@H](C)C(=O)N[C@@H](CCCNC(=N)N)C(=O)N[C@H](C(=O)N[C@@H](CC(C)C)C(=O)N[C@@H](C)C(=O)N[C@@H](CCCNC(=N)N)C(=O)N[C@H](C(N)=O)C(C)C)[C@@H](C)CC)[C@@H](C)CC)C(C)C)C(C)C` [compound 16] (H-IVLSLDVPIGLK([AEEA-AEEA-γGlu-C18 diacid])QKLLKQQRQRKERQQAEKNARILARV-NH2), the maximal effect (Emax) on CRF1R receptor came out at 0.4%.

Consider `CC[C@H](C)[C@H](N)C(=O)N[C@H](C(=O)N[C@@H](CC(C)C)C(=O)N[C@@H](CO)C(=O)N[C@@H](CC(C)C)C(=O)N[C@@H](CC(=O)O)C(=O)N[C@H](C(=O)N1CCC[C@H]1C(=O)N[C@H](C(=O)N[C@@H](CCCCN)C(=O)N[C@@H](CC(C)C)C(=O)N[C@@H](CCCCNC(=O)COCCOCCNC(=O)COCCOCCNC(=O)CC[C@H](NC(=O)CCCCCCCCCCCCCCCCC(=O)O)C(=O)O)C(=O)N[C@@H](CCC(N)=O)C(=O)N[C@H](C(=O)N[C@@H](CC(C)C)C(=O)N[C@@H](CC(C)C)C(=O)N[C@@H](CCCCN)C(=O)N[C@@H](CCC(N)=O)C(=O)N[C@@H](CCC(=O)O)C(=O)N[C@@H](CCCNC(=N)N)C(=O)N[C@@H](CCC(N)=O)C(=O)N[C@@H](CCCCN)C(=O)NC(C)(C)C(=O)N[C@@H](CCC(N)=O)C(=O)N[C@@H](CCCNC(=N)N)C(=O)N[C@@H](CCC(N)=O)C(=O)N[C@@H](CCCCN)C(=O)N[C@@H](C)C(=O)N[C@@H](CCC(=O)O)C(=O)N[C@@H](CCCCN)C(=O)N[C@@H](CC(N)=O)C(=O)N[C@@H](CCCCN)C(=O)N[C@@H](CCC(N)=O)C(=O)N[C@H](C(=O)N[C@@H](CC(C)C)C(=O)N[C@@H](C)C(=O)N[C@@H](CCC(N)=O)C(=O)N[C@H](C(N)=O)C(C)C)[C@@H](C)CC)[C@@H](C)CC)[C@@H](C)CC)C(C)C)C(C)C` [compound 22] (H-IVLSLDVPIKLK([AEEA-AEEA-γGlu-C18 diacid])QILLKQERQK[Aib]QRQKAEKNKQILAQV-NH2), for which the EC50 was over 100 nM on CRF1R receptor (0% HSA, read-out: EC50 [nM] 0% HSA) and 0.12 nM on human CRF2α receptor. The compound further registered a maximal response (Emax) on CRF1R receptor of 1.2%.

These data come from patent US12679878B2, “CRF2 receptor agonists and their use in therapy” (SANOFI, priority 2020, dated 2026).
